{"source": "paper PMC4564290", "about": "(Journal of Molecular and Cellular Cardiology, 2015)", "key": {"N588K hERG": {"target": "N588K hERG (Homo sapiens, UniProt Q12809, N588K)", "sequence (Q12809 whole entry N588K)": "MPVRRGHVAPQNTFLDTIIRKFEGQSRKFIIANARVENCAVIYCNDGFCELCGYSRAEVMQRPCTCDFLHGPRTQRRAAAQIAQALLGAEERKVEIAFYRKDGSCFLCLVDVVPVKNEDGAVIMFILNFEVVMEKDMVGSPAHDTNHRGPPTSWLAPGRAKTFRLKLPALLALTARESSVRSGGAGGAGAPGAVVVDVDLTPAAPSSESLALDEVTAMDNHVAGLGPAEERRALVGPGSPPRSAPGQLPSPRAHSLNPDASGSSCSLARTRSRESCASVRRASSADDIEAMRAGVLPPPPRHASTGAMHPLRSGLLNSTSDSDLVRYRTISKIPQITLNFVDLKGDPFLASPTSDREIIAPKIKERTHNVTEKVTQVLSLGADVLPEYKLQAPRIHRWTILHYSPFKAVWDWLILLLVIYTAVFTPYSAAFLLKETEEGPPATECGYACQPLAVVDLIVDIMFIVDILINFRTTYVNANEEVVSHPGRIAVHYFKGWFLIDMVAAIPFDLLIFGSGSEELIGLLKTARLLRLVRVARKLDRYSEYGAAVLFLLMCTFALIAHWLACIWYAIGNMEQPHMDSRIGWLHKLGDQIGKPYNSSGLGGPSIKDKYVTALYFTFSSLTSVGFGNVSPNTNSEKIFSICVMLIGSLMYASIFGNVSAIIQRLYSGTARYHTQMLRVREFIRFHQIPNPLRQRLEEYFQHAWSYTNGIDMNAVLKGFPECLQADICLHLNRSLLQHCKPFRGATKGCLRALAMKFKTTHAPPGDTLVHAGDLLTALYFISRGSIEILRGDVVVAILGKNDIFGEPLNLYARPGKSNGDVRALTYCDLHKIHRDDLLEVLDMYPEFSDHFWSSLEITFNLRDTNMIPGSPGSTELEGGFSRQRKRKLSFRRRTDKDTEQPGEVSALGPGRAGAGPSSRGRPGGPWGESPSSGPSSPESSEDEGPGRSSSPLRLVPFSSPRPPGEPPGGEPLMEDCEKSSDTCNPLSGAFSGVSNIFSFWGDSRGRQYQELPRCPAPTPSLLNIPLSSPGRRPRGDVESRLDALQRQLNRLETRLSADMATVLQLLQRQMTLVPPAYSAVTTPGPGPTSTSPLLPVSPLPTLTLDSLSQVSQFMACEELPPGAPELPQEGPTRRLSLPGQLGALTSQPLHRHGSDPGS", "set-up": "expressed in transfected cells; host or cells: HEK cells", "conditions": "IC50 mutant/IC50 WT; mammalian expression; ref 15 of supplement; cited from earlier work"}, "[1]": {"conditions": "cited from earlier work"}, "[2]": {"target": "T1, wild-type (WT) hERG channels (Homo sapiens, UniProt Q12809)", "T1 construct": "expressed in transfected cells", "test": "Whole-cell patch clamp of WT IhERG in HEK293 cells at 37 °C", "assay_type": "cell-based", "conditions": "for Fraction of unblocked IhERG: 6–8 min; for Whole-cell IhERG current density: ~6 min, drug-free control 315.3 ± 56.7", "description": "(§1) HEK cells stably or transiently expressing hERG channel constructs were cultured as previously described [[34,37]]. The cells were plated in 40 mm petri dishes at least 48 h before transfection and incubated at 37 °C (5% CO2). Cells were transfected with Lipofectamine™ LTX (Invitrogen) following the manufacturer's instructions. The amount of transfected hERG construct DNA varied between 0.2 and 1.0 μg depending on the level of functional expression (assessed as current magnitudes) of each hERG channel construct. 0.5 to 1.0 μg of CD8 was co-transfected as a transfection-marker and successfully transfected cells were identified using Dynabeads® (Invitrogen). Cells were plated on small sterilized glass shards in 40 mm petri dishes and incubated at 37 °C (5% CO2) for at least 24 h before electrophysiological recording.\n(§2) Glass shards containing plated cells were placed in a recording chamber mounted on an inverted microscope (Nikon Diaphot, USA). The cells were continuously superfused with a pre-warmed (37 °C) standard Tyrode's solution containing (in mM) the following: 140 NaCl, 4 KCl, 2.5 CaCl2, 1 MgCl2, 10 Glucose, 5 HEPES (titrated to pH 7.4 with NaOH). […] Patch-pipettes were dialysed with an intracellular solution containing (in mM) the following: 130 KCl, 1 MgCl2, 5 EGTA, 5 MgATP, 10 HEPES (titrated to pH 7.2 with KOH). All recordings were made using an Axopatch 200B amplifier (Axon Instruments, now Molecular Devices) and a CV203BU head-stage. Pipette resistance compensation was between 70 and 80%. […] Data digitization rates were 10–25 kHz during all voltage protocols and an appropriate bandwidth of 2–10 kHz was set on the amplifier.\nFor statistical analysis, data were subject to the Kolmogorov–Smirnov normality test. Statistical comparisons were made using paired or unpaired two-tailed t tests, Wilcoxon matched pairs signed rank test, Mann–Whitney U test and one way (repeated measures, where indicated) or two way ANOVA, as appropriate.\nBlock of IhERG was assessed by calculating the reduction in drug of the outward ‘tail’ current at − 40 mV (assessed as the difference in magnitude between peak tail current and instantaneous current activated by the brief (50 ms) depolarization from − 80 to − 40 mV [[24,34,37]]). […] The fractional inhibition at each of four concentrations was calculated using Eq. (1) (supplementary information) and the mean values were plotted as shown in Fig. 1D and then fitted with a standard Hill equation (Eq. (2), supplementary information). […] The low expression and kinetics of some mutant channels included in this study requires that IhERG be studied as an inward current in high (94 mM) [K^+]o [[34,35,37]].\nWe tested the effect of two concentrations (10 and 100 μM) of each analogue applied from the cell exterior (superfusate) and interior (the latter through the patch-pipette). […] As soon as the whole-cell configuration was achieved the drug molecules were free to diffuse inside the cytoplasm, precluding cells acting as their own control."}, "F656A hERG [3]": {"target": "T2, F656A hERG (Homo sapiens, UniProt Q12809, F656A)", "T2 sequence (Q12809 whole entry F656A)": "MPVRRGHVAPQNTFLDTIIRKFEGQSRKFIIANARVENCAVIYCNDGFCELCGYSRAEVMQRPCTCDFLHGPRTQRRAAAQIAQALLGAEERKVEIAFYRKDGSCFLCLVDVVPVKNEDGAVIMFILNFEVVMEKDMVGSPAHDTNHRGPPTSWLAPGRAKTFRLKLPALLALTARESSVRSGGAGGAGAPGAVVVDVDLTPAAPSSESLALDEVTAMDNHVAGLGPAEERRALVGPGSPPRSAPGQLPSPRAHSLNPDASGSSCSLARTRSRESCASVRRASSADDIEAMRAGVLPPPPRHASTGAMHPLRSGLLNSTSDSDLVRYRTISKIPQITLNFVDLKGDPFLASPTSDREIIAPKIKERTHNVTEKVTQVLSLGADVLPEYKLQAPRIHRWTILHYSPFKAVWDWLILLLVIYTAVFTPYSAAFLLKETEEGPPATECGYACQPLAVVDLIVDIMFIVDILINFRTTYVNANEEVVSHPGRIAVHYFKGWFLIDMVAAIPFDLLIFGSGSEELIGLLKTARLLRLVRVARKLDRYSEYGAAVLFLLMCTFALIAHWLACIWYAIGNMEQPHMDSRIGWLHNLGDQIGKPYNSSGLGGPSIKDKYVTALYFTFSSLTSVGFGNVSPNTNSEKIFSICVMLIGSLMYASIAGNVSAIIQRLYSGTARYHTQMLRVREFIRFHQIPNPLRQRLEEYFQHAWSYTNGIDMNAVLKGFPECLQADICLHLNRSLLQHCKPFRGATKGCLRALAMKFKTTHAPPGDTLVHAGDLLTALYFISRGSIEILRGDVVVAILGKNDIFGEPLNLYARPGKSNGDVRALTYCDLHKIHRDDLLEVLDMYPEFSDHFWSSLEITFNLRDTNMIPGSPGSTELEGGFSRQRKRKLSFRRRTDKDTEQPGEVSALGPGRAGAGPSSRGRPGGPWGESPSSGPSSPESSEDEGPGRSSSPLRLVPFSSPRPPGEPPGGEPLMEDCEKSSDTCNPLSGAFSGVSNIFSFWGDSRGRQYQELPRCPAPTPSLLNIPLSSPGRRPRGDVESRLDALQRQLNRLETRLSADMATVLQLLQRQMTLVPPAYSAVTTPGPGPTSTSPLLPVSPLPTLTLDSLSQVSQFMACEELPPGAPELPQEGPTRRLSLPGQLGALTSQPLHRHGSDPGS", "test": "Patch clamp of F656A S6 helix mutant IhERG", "assay_type": "cell-based", "set-up": "expressed in transfected cells; host or cells: HEK cells", "conditions": "internal (patch-pipette) application 100 µM, tails at -120 mV, n=8 vs control n=12", "description": "as §1, §2\nTo investigate potential binding determinants in the pore region we studied alanine mutants of three residues (G648, Y652 and F656) located within the channel inner cavity on the S6 helix. […]"}, "F656V hERG": {"system": "F656V hERG", "conditions": "cited from earlier work"}, "Y652A hERG": {"target": "Y652A hERG (Homo sapiens, UniProt Q12809, Y652A)", "sequence (Q12809 whole entry Y652A)": "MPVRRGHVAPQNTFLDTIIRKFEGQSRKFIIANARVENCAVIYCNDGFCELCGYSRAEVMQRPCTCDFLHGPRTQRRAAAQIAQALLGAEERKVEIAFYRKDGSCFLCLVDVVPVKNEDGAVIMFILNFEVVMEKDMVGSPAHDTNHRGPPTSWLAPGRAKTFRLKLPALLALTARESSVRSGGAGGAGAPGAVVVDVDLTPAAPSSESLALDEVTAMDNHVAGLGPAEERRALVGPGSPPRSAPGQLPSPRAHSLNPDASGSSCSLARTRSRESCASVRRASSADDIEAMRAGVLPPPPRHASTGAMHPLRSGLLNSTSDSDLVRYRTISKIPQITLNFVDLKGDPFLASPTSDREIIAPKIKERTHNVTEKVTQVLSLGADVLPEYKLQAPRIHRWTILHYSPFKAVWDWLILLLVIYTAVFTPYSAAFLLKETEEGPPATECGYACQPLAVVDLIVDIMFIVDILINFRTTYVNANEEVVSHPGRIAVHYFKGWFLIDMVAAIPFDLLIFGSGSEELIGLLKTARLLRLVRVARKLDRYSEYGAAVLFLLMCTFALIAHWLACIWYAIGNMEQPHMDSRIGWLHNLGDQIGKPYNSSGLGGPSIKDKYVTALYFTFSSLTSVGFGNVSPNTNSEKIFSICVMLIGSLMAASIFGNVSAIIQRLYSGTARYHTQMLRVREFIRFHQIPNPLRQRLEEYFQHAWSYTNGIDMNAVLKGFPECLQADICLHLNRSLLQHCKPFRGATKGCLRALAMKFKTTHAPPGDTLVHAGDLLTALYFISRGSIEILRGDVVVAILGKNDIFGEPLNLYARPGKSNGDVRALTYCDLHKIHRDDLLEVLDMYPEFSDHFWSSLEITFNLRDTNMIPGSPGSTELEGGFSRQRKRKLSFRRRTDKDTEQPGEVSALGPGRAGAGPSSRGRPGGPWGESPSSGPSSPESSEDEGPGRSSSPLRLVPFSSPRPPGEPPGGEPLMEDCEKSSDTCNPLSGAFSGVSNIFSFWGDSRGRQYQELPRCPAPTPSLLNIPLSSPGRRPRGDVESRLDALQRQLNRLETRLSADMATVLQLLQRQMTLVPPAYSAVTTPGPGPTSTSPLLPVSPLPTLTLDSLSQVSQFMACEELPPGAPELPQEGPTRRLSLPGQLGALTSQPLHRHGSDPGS", "set-up": "expressed in transfected cells", "conditions": "300 μM (profound blocking concentration for WT IhERG), Xenopus oocyte expression; cited from earlier work"}, "F656A hERG [4]": {"target": "T2, F656A hERG", "conditions": "300 μM (profound blocking concentration for WT IhERG), Xenopus oocyte expression; cited from earlier work"}, "[5]": {"system": "feline ventricular E-4031 sensitive delayed rectifier current", "conditions": "cited from earlier work"}, "L-type calcium current": {"system": "L-type calcium current", "conditions": "cited from earlier work"}, "[6]": {"system": "Kv1.5 V505 mutated to phenylalanine", "set-up": "method as in PMID 17872968", "conditions": "cited from earlier work"}, "[7]": {"conditions": "external application (superfusate) 10 μM"}, "[8]": {"conditions": "external application (superfusate) 100 μM"}, "[9]": {"conditions": "internal application via patch-pipette 10 μM"}, "[10]": {"conditions": "internal application via patch-pipette 100 μM"}}, "note": "Entries after “also recorded” stand apart in the source; their conditions may differ.", "data": [{"smiles": "CC(C)NC[C@@H](O)c1ccc(NS(C)(=O)=O)cc1", "note": "[D-Sotalol]", "values": [{"measurement": "Fold-change in IC50 N588K compared to WT IhERG", "setting": "N588K hERG", "value": 20, "unit": "fold"}]}, {"smiles": "O=C(NCCN1CCOCC1)c1cc(OCC(F)(F)F)ccc1OCC(F)(F)F", "note": "[NU-Flec]", "values": [{"measurement": "pKa", "setting": "[1]", "value": 6.3}, {"measurement": "Fraction of unblocked IhERG", "setting": "[2]; [7]", "value": "75.8 ± 4.4", "unit": "%"}, {"measurement": "Fraction of unblocked IhERG", "setting": "[2]; [8]", "value": "50.2 ± 4.3", "unit": "%"}, {"measurement": "Whole-cell IhERG current density", "setting": "[2]; [9]", "value": "283.2 ± 63.4", "unit": "pA/pF"}, {"measurement": "Whole-cell IhERG current density", "setting": "[2]; [10]", "value": "359.8 ± 56.1", "unit": "pA/pF"}]}, {"smiles": "C[N+]1(C)CCCCC1CNC(=O)c1cc(OCC(F)(F)F)ccc1OCC(F)(F)F", "note": "(centres unmarked) [QX-Flec]", "values": [{"measurement": "Fraction of unblocked IhERG", "setting": "[2]; [7]", "value": "72.2 ± 4.6", "unit": "%"}, {"measurement": "Fraction of unblocked IhERG", "setting": "[2]; [8]", "value": "54.6 ± 3.5", "unit": "%"}, {"measurement": "Whole-cell IhERG current density", "setting": "[2]; [9]", "value": "55.3 ± 5.9", "unit": "pA/pF"}, {"measurement": "Whole-cell IhERG current density", "setting": "[2]; [10]", "value": "9.3 ± 1.9", "unit": "pA/pF"}, {"measurement": "Effect on density of inward F656A IhERG tails vs drug-free control", "setting": "F656A hERG [3]", "value": "ineffective; also recorded: no significant difference; also recorded: little inhibition"}]}, {"smiles": "C=C[C@H]1C[N@@]2CC[C@H]1C[C@@H]2[C@@H](O)c1ccnc2ccc(OC)cc12", "note": "[Quinidine]", "values": [{"measurement": "Increase in IhERG IC50 with F656V", "setting": "F656V hERG", "value": "~ 27 fold"}]}, {"smiles": "CC[C@H]1[C@@H]2C[C@H]3[C@@H]4N(C)c5ccccc5[C@]45C[C@@H]([C@H]2[C@H]5O)N3[C@@H]1O", "note": "[ajmaline]", "values": [{"measurement": "Inhibitory action on Y652A IhERG", "setting": "Y652A hERG", "value": "ineffective"}, {"measurement": "Inhibitory action on F656A IhERG", "setting": "F656A hERG [4]", "value": "ineffective"}]}, {"smiles": "O=C(NCC1CCCCN1)c1cc(OCC(F)(F)F)ccc1OCC(F)(F)F", "note": "(centres unmarked) [flecainide, Flecainide acetate]", "values": [{"measurement": "IC50", "setting": "[5]", "value": 2.1, "unit": "µM"}, {"measurement": "IC50", "setting": "L-type calcium current", "value": "~20", "unit": "µM"}, {"measurement": "Increase in blocking potency on mutating V505 to phenylalanine", "setting": "[6]", "value": 9, "unit": "fold"}]}]}
